Article PMC2723102, “The interactome of the amyloid β precursor protein family members is shaped by phosphorylation of their intracellular domains” (Molecular Neurodegeneration, 2009)

Columns and labels:
Format in all cases: binding
[1] = molecular target: T1, GST-NUMB-p71 (Homo sapiens, UniProt P49757); test: BIAcore surface plasmon resonance, GST-NUMB-p71; conditions: SPR, BIAcore 3000, strep-tag peptide amine coupled to CM-5 chip (4500–7500 RU), analyte GST-NUMB-p71
T1 construct: All these targets analyzed contain either an SH2 or a PTB domain fused to GST; made in house; host or cells: bacterial cultures
T1 sequence (P49757 33-182 isoform P49757-3): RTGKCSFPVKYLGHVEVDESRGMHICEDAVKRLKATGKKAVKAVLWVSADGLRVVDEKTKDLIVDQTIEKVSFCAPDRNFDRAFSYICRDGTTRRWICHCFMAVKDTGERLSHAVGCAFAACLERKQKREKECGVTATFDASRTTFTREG
Source text: (§1) Binding of GST and GST-Grb2, NUMB p71, and X11β domains to strep-tag AID peptide or different phosphorylation forms was monitored by surface plasmon resonance (SPR) on a BIAcore 3000 machine (BIAcore, Neuchâtel, Switzerland). The strep-tag peptide and different phosphorylation forms of AID peptides were covalently amine coupled to a CM-5 sensor chip by use of the amine covalent coupling. An immobilization level of 4500–7500 resonance units was obtained. A nonderivatized flowcell serves as a reference surface. Interactions between GST and GST-Grb2, NUMB p71, and X11β to strep-tag peptides were determined by the change in signal measured in RU.

[2] = molecular target: T2, GST-Grb2 (Homo sapiens, UniProt P62993); test: BIAcore surface plasmon resonance, GST-Grb2; conditions: SPR, BIAcore 3000, strep-tag peptide amine coupled to CM-5 chip (4500–7500 RU), analyte GST-Grb2
T2 construct: All these targets analyzed contain either an SH2 or a PTB domain fused to GST; made in house; host or cells: bacterial cultures
Source text: as §1

[3] = molecular target: T3, GST-X11β (Homo sapiens, UniProt Q99767); test: BIAcore surface plasmon resonance, GST-X11β; conditions: SPR, BIAcore 3000, strep-tag peptide amine coupled to CM-5 chip (4500–7500 RU), analyte GST-X11β
T3 construct: All these targets analyzed contain either an SH2 or a PTB domain fused to GST; made in house; host or cells: bacterial cultures
T3 sequence (Q99767 368-555 limits assumed): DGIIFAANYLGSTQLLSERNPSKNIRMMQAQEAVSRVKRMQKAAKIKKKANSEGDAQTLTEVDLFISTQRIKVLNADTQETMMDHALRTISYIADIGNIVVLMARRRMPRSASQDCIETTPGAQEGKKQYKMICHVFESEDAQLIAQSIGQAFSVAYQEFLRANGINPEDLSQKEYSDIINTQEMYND
Source text: as §1

T2 sequence (P62993 60-152 limits assumed): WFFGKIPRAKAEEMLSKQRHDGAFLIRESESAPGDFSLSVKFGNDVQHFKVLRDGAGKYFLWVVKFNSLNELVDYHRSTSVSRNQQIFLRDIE

Kd [1] | Structure (SMILES) | Kd [2] | Kd [3]
997 nM | CC[C@H](C)[C@H](NC(=O)[C@H](CO)NC(=O)[C@@H](NC(=O)[C@H](Cc1ccc(O)cc1)NC(=O)[C@H](CCC(N)=O)NC(=O)[C@H](CCCCN)NC(=O)[C@H](CCCCN)NC(=O)[C@H](CCCCN)NC(=O)[C@H](CC(C)C)NC(=O)[C@H](CCSC)NC(=O)[C@@H](N)C(C)C)[C@@H](C)O)C(=O)N[C@@H](Cc1c[nH]cn1)C(=O)N[C@@H](Cc1c[nH]cn1)C(=O)NCC(=O)N[C@H](C(=O)N[C@H](C(=O)N[C@@H](CCC(=O)O)C(=O)N[C@H](C(=O)N[C@@H](CC(=O)O)C(=O)N[C@@H](C)C(=O)N[C@@H](C)C(=O)N[C@H](C(=O)N[C@H](C(=O)N1CCC[C@H]1C(=O)N[C@@H](CCC(=O)O)C(=O)N[C@@H](CCC(=O)O)C(=O)N[C@@H](CCCNC(=N)N)C(=O)N[C@@H](Cc1c[nH]cn1)C(=O)N[C@@H](CC(C)C)C(=O)N[C@@H](CO)C(=O)N[C@@H](CCCCN)C(=O)N[C@@H](CCSC)C(=O)N[C@@H](CCC(N)=O)C(=O)N[C@@H](CCC(N)=O)C(=O)N[C@@H](CC(N)=O)C(=O)NCC(=O)N[C@@H](Cc1ccc(OP(=O)(O)O)cc1)C(=O)N[C@@H](CCC(=O)O)C(=O)N[C@@H](CC(N)=O)C(=O)N1CCC[C@H]1C(=O)N[C@H](C(=O)N[C@@H](Cc1ccc(O)cc1)C(=O)N[C@@H](CCCCN)C(=O)N[C@@H](Cc1ccccc1)C(=O)N[C@@H](Cc1ccccc1)C(=O)N[C@@H](CCC(=O)O)C(=O)N[C@@H](CCC(N)=O)C(=O)N[C@@H](CCSC)C(=O)N[C@@H](CCC(N)=O)C(=O)N[C@@H](CC(N)=O)C(=O)O)[C@@H](C)O)[C@@H](C)O)C(C)C)C(C)C)C(C)C)C(C)C [AIDpY] | 2.57 nM | 
 | CC[C@H](C)[C@H](NC(=O)[C@H](CO)NC(=O)[C@@H](NC(=O)[C@H](Cc1ccc(O)cc1)NC(=O)[C@H](CCC(N)=O)NC(=O)[C@H](CCCCN)NC(=O)[C@H](CCCCN)NC(=O)[C@H](CCCCN)NC(=O)[C@H](CC(C)C)NC(=O)[C@H](CCSC)NC(=O)[C@@H](N)C(C)C)[C@@H](C)O)C(=O)N[C@@H](Cc1c[nH]cn1)C(=O)N[C@@H](Cc1c[nH]cn1)C(=O)NCC(=O)N[C@H](C(=O)N[C@H](C(=O)N[C@@H](CCC(=O)O)C(=O)N[C@H](C(=O)N[C@@H](CC(=O)O)C(=O)N[C@@H](C)C(=O)N[C@@H](C)C(=O)N[C@H](C(=O)N[C@H](C(=O)N1CCC[C@H]1C(=O)N[C@@H](CCC(=O)O)C(=O)N[C@@H](CCC(=O)O)C(=O)N[C@@H](CCCNC(=N)N)C(=O)N[C@@H](Cc1c[nH]cn1)C(=O)N[C@@H](CC(C)C)C(=O)N[C@@H](CO)C(=O)N[C@@H](CCCCN)C(=O)N[C@@H](CCSC)C(=O)N[C@@H](CCC(N)=O)C(=O)N[C@@H](CCC(N)=O)C(=O)N[C@@H](CC(N)=O)C(=O)NCC(=O)N[C@@H](Cc1ccc(OP(=O)(O)O)cc1)C(=O)N[C@@H](CCC(=O)O)C(=O)N[C@@H](CC(N)=O)C(=O)N1CCC[C@H]1C(=O)N[C@H](C(=O)N[C@@H](Cc1ccc(O)cc1)C(=O)N[C@@H](CCCCN)C(=O)N[C@@H](Cc1ccccc1)C(=O)N[C@@H](Cc1ccccc1)C(=O)N[C@@H](CCC(=O)O)C(=O)N[C@@H](CCC(N)=O)C(=O)N[C@@H](CCSC)C(=O)N[C@@H](CCC(N)=O)C(=O)N[C@@H](CC(N)=O)C(=O)O)[C@@H](C)O)[C@@H](C)OP(=O)(O)O)C(C)C)C(C)C)C(C)C)C(C)C [AIDpTpY] | 0.413 nM | 13.1 nM
